{"source": "patent US20070176143A1", "about": "“Stable ill-defined cubic nanosized particles in a ternary aqueous phase” (YISSYM RESEARCH DEVELOPMENT COMPANY OF THE HEBREW …, priority 2003, published 2007)", "description": "Well ordered liquid crystals have many applications all utilizing their relative structured character and the very large surface area they posses.\n(§1) 2 gr of GMO were melted by heating to about 50° C. In a separate vessel, 2 gr of GMO and lycopene (0.0085 gr) were placed. The vessel was closed and its contents were mixed well with vortex until all the lycopene dissolved. 0.5 gr ethanol was added and the combination further mixed. The vessel was placed in a bath at a temperature of 45° C. 2.5 gr water were added.\n2 gr of GMO were melted by heating to about 50° C. In a separate vessel, 2 gr of GMO and 0.5 gr of ethanol were placed. The vessel was closed and its contents were mixed well with vortex. The vessel was placed in a bath at 45° C.\nas §1, with “carbamazepine (0.044” for “lycopene (0.0085”, “carbamazepine” for “lycopene”\n2 gr of GMO were melted by heating to about 50° C. In a separate vessel, 2 gr of GMO and phytosterol (0.2 gr) were placed. […] 0.5 gr ethanol was added and the combination further mixed. The vessel was placed in a bath at a temperature of 45° C. 2.5 gr water were added."}
{"molecule": "CC(C)=CCC/C(C)=C/C=C/C(C)=C/C=C/C(C)=C/C=C/C=C(C)/C=C/C=C(C)/C=C/C=C(\\C)CCC=C(C)C", "note": "[Lycopene]", "values": [{"measurement": "solubilization in an aqueous phase comprising the QL semi-ordered phase", "result": "successfully solubilized"}]}
{"molecule": "NC(=O)N1c2ccccc2C=Cc2ccccc21", "note": "[carbamazapine, reference compound]", "values": [{"measurement": "solubilization in an aqueous phase comprising the QL semi-ordered phase", "result": "successfully solubilized"}]}
{"molecule": "CC1=C[C@H](O)CC(C)(C)[C@H]1/C=C/C(C)=C/C=C/C(C)=C/C=C/C=C(C)/C=C/C=C(C)/C=C/C1=C(C)C[C@@H](O)CC1(C)C", "note": "[leutin]", "values": [{"measurement": "solubilization in an aqueous phase comprising the QL semi-ordered phase", "result": "successfully solubilized"}]}
{"molecule": "CC1=C(/C=C/C(C)=C/C=C/C(C)=C/C=C/C=C(C)/C=C/C=C(C)/C=C/C2=C(C)CCCC2(C)C)C(C)(C)CCC1", "note": "[β-carotene]", "values": [{"measurement": "solubilization in an aqueous phase comprising the QL semi-ordered phase", "result": "successfully solubilized"}]}
{"molecule": "phytosterol", "values": [{"measurement": "solubilization in an aqueous phase comprising the QL semi-ordered phase", "result": "all the phytosterol dissolved"}]}
